Biological target: human cathepsin H (Homo sapiens, UniProt P09668)
Test: Cathepsin H inhibition assay, enzyme from human liver tissue, L-Arg-β-naphthalamide
Assay type: biochemical
Conditions: Table 2, human cathepsin H; read-out: h Cat H IC50
Procedure: All assays for cathepsin K were carried out with human and rat recombinant enzyme. Assays for cathepsins S ? V were also carried out with human recombinant enzyme. Assays for human cathepsins B, H, and L were carried out with enzyme, purchased from Athens Research and Technology, Inc., prepared from human liver tissue. Standard assay conditions for the determination of kinetic constants used a fluorogenic peptide substrate, typically (5S,8S)-13-amino-5-benzyl-13-imino-3-methylene-N-(4-methyl-2-oxo-2H-chromen-7-yl)-6-oxo-1-phenyl-2-oxa-4,7,12triazatridecane-8-carboxamide (Cbz-Phe-Arg-AMC), and were determined in 100 mM sodium acetate at pH 5.5 containing 10 mM dithiothreitol and 120 mM sodium chloride. […]
All assays contained 10% dimethyl sulfoxide. […] Product fluorescence (excitation at 360 nm; emission at 440 nm, (except cathepsin H which used excitation at 340 nm; emission at 420 nm)) was monitored with a PerSeptive Biosystems Cytofluor II fluorescence plate reader. […]
Potential inhibitors were evaluated using the progress curve method. […] For those compounds whose progress curves were linear, the enzymatic activity (RATE) was plotted against the concentration of test compound, including inhibitor concentration of zero ([I]=0), and the IC50 determined from a fit of equation 1 to the data, RATE=Vmax/(1+([I]/IC50)) (1) where Vmax is the best fit estimate of the maximal enzymatic activity. […]

Sequence of human cathepsin H (P09668 116-335 limits assumed, other chains not shown): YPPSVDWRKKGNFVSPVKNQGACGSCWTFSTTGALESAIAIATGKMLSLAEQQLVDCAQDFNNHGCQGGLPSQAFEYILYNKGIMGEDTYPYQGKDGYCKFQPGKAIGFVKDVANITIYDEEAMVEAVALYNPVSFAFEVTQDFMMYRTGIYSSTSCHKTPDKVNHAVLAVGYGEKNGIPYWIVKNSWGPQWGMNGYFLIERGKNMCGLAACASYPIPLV

IC50	Compound
100 to 1000 nM	CCCC[C@H](NC(=O)O[C@@H]1CN(C(=O)Nc2ccc(C(F)(F)F)cc2)CC1(C)C)C(=O)C(=O)Nc1ccn[nH]1 [Example 71, (3S)-4,4-dimethyl-1-{[4-(trifluoromethyl)anilino]carbonyl}pyrrolidinyl (1S)-1-[oxo(1H-pyrazol-5-ylamino)acetyl]pentylcarbamate]
100 to 1000 nM	CCCC[C@H](NC(=O)O[C@@H]1CN(c2nnc(C(F)(F)F)s2)CC1(C)C)C(=O)C(=O)Nc1ccn[nH]1 [Example 82, (3S)-4,4-Dimethyl-1-[5-(trifluoromethyl)-1,3,4-thiadiazol-2-yl]pyrrolidinyl-(1S)-1-[oxo(1H-pyrazol-5-ylamino)acetyl]pentylcarbamate]

From patent US7402606B2, “Derivatives of 1-(oxoaminoacetyl) pentylcarbamate as cathepsin K inhibitors for the treatment of bone loss” (SmithKline Beecham Corporation, priority 2002, dated 2008)
